The values below come from patent publication US20080227854A1, “Compound 3-(1, 1-Dimethyl-Allyl)-6-Hydroxy-Chromen-2-One and its Pharmaceutically Acceptable Salts Thereof” (COUNCIL OF SCIENTIFIC & INDUSTRIAL RESEARCH, priority 2007, published 2008).

One series concerns inos gene. In words: RT-PCR analysis for inos gene expression. The series is classed as cell-based, murine. How it is done:
The murine macrophage cells were preincubated with the test extract, ethyl ether fraction and the compound for 2 hours (as mentioned above), washed and then challenged with LPS for 4 hours. After the incubation period the cells were washed with phosphate buffered saline (PBS), scraped and then pelleted by centrifugation. The total RNA from the pelleted cells was isolated using EZ-RNA isolation kit (Biological industries) using vendor recommended protocol. Then, cDNA was prepared from the total RNA using single strand cDNA synthesis kit (Clontech, USA) and the expression of inos gene was estimated using gene specific primers for inos gene.
The murine macrophage cells (J774) were challenged with LPS at a concentration of 1 μg/ml with and without the four test fractions obtained in Example III for 4 hours at 37° C. in the humidified incubator with 5% CO2. The cells were harvested and were used to isolate the total RNA using (RNA isolation kit, Qiagen). The RNA was quantified spectrophotometrically and 2 μg of total RNA from each sample was used for cDNA synthesis (cDNA synthesis kit, Clontech). Gene specific PCR for the inducible nitric oxide synthase (inos) and glyceraldehyde-3-phosphatedehyrogenase (G3PDH) as house keeping gene was performed. Primer sequences were designed from cDNA sequences of the specific gene (www:ncbi.nlm.nih.gov/locuslink) using DNASTAR software. […]

Series [1] concerns murine macrophage cells (J774). As to the kind of experiment: Cytotoxicity assay using MTT. Format: cell-based. The conditions noted are these: for Cell viability (%): J774, MTT. How it is done:
The murine macrophage cells were plated in cell culture plates and then treated with or without the crude extract/ethyl ether fraction/purified compound. The cells were then washed and challenged with LPS (1 μg/ml) for 16 hours. The MTT (5 mg/ml in PBS) was then added and the cells were further incubated for 4 hours at 37° C. in CO2 incubator. MTT solubilization buffer was then added and absorbance at 590 nm was determined.

For the next series, the system named is Balb/c mice. As to the kind of experiment: LPS induced endotoxemia in Balb/c mice, total nitrite in plasma. Format: in vivo. How it is done: The HPLC purified lead compound was suspended in phosphate buffered saline (PBS) at a concentration of 20 mg/ml for in vivo experiment. Balb/c mice, 6 to 8 week of age, weighing 23-25 g, were housed in micro-barrier cages on sterile bedding and fed ad libitum water and food. The animals were divided into three groups containing 6 mice in each group. Four milligrams (160 mg/kg body weight) of the isolated lead compound was administered intra-peritoneally (i.p.) 2 hours prior to LPS challenge. After 2 hours 150 μg LPS was injected i.p., and the mice were kept for 8 hours. In negative control mice, PBS was injected whereas, only LPS injected mice were used as positive control. After 8 hours of LPS injection, the blood was collected in ACD buffer from each mouse by retro-orbital puncture. The blood samples were immediately centrifuged and the plasma samples were collected and stored at −20° C. till nitrite assay. The plasma samples were then diluted 1:1 using 1× reaction buffer (total nitrite estimation kit, R & D systems, USA) and protein from the plasma was removed using 10 kDa centricon (Centricon, USA). Then protein free plasma samples were used for total nitrite estimation (NO^2−+NO^3−) using the same kit.
The Balb/c mice were used to validate the in vivo effect of the active compound on endotoxin induced inflammation by LPS. Balb/c mice, 6 to 8 week of age, weighing 23-25 g, were housed in micro-barrier cages on sterile bedding and fed ad libitum water and food. The animals were divided into three groups containing 6 mice in each group. Four milligrams (160 mg/kg body weight) of the active compound was preinjected intra-peritonially (i.p.) into the mice for two hours and then LPS (150 μg) was injected i.p. and left for eight hours. […] The plasma from the blood samples were collected by centrifuging at […] for 10 minutes and stored at −80° C. till nitric oxide was analyzed using Griess nitrite assay. The total nitrite in the plasma samples were detected using nitric oxide (NO^2−/NO^3−) assay kit (R & D systems, USA). […]

The test system of series [2] is nitric oxide production in murine macrophage cells (J774). In words: Nitric oxide assay using Griess nitrite assay in LPS-challenged macrophages. Format: cell-based. How it is done:
Murine macrophage cell line (J-774) was used to check the anti-inflammatory effects of the extract, sub-fractions and the isolated active compounds. The macrophages are cultured in Dulbeccos Modified Eagles Medium (DMEM) supplemented with antibiotic and antimycotic solution and 10% fetal calf serum at 37° C. in a CO2 incubator (5%). The cell viability was measured using the Trypan blue exclusion method. For inducing the inflammatory conditions the cell were stimulated with LPS (1 μg/ml) and the effect of the compounds on the inflammatory condition was assessed by measuring the inflammatory mediator, nitric oxide and the respective inos gene expression by the murine macrophages.
The murine macrophage cells release nitric oxide along with other pro-inflammatory molecules, when stimulated with LPS. The cells were preincubated with the crude extract (300 and 500 μg/ml), ethyl ether fraction (50, 100, 150 μg/ml), the isolated active compound (5, 10, 20 μg/ml) and rutin (20, 40, 80 μM) for 2 hours and then challenged with LPS (1 μg/ml) for 16 hours. After 16 hours the cell supernatant was used to measure the nitric oxide production as nitrite using Griess nitrite assay (Lee et al., 2003, Life Science 73, 1401-1412). Equal amount of cell supernatant was incubated with Griess reagent for 10 minutes at room temperature and the magenta color developed was measured using spectrophotometer.
Each of the four fractions obtained in Example III were then used in different concentrations (50 μg/ml, 100 µg/ml and 150 μg/ml) for their effect on nitric oxide inhibition in vitro. Murine macrophages (J774) were maintained in DMEM medium, 37° C. in CO2 incubator (5% CO2). The cells were harvested and challenged with LPS (Sigma) at a concentration of 1 μg/ml with and without the four test fractions obtained in Example III for 16 hours at 37° C. in the humidified incubator with 5% CO2. After 16 hours the cell free supernatant was collected and the nitric oxide production was measured as described by Lee et al. Briefly 100 μl of supernatant samples were incubated for 10 min at room temperature with an equal volume of Griess reagent (0.1% naphthalene diamine dihydrochloride, 1% sulfanilamide in 5% H2SO4) in microtitre plate. The absorbance at 550 nm was measured. Sodium nitrite was used as the standard.
On the technique in general: The Griess reaction detects nitrite, a stable product of nitric oxide.

One may read the cell viability as the share of living cells, or the viability signal relative to a control. As usually defined, the inhibition is the relative decrease from the control value, in per cent. A higher inhibition goes with strong suppression. With `C=CC(C)(C)c1cc2cc(O)ccc2oc1=O` [Rg-001, 3-(1,1-dimethyl-allyl)-6-hydroxy-chromen-2-one], the “inhibition of inos gene” value with inos gene stood at 70%. Further, the “effect on inos gene expression” value with inos gene (J774, LPS challenge) was “inhibit the gene expression significantly”. For the same compound, the “Cell viability (%)” value in series [1] (5 μg (21.74 μM)) is on record as greater than 85%; in series [1] (10 μg (43.5 μM)), greater than 85%; in series [1] (20 μg (87 μM)), greater than 85%; in series [1] (20 μg (87 μM), listed as 3-(1,1-dimethyl-allyl)-6-hydroxy-chromen-2-one) it was greater than 85%. The compound also registered a cell viability in series [1] (all the doses ranging from 20 to 100 μg/ml) greater than 85%. In series [1] (highest concentration 50 μg i.e. 217.5 μM, MTT), the “viability of macrophage cells” value is given as greater than 85%. The “inhibition of total nitrite in the plasma samples” value with Balb/c mice (160 mg/kg body weight i.p. 2 hours prior to LPS (150 μg), blood after 8 hours) is greater than 75%. The “behavioral condition of treated mice” value in the series on Balb/c mice (160 mg/kg i.p., 8 hours after LPS, compared to the LPS challenged mice) was “normal behavioral condition”. Moreover, the “in-vivo inflammation (NO inhibition)” value in the series on Balb/c mice (effective dose of 40 mg/kg to 160 mg/kg body weight) is 60% to 80. The “Nitric oxide inhibition (%)” value was found to be 25.4% in series [2] (5 μg (21.74 μM), J774, LPS 1 μg/ml 16 h, 21.74 µM) and 63.5% in series [2] (20 μg (87 μM), J774, LPS 1 μg/ml 16 h, 87 µM). Also, the “inhibition of nitric oxide production” value in series [2] (5, 10 and 20 μg/ml, J774, LPS) was “significant inhibition”. This compound showed an inhibition at 21.74 µM in series [2] (Mus musculus, J774, 16 h, 5 μg (21.74 μM), J774, LPS 1 μg/ml 16 h) of 25%. For the same compound, the inhibition at 43.5 µM in series [2] (Mus musculus, J774, 16 h, 10 μg (43.5 μM), J774, LPS 1 μg/ml 16 h) was determined as 40%. For the same compound, the inhibition at 87 µM in series [2] (Mus musculus, J774, 16 h, 20 μg (87 μM), J774, LPS 1 μg/ml 16 h) came out at 70%.

As for `C[C@@H]1O[C@@H](OC[C@H]2O[C@@H](Oc3c(-c4ccc(O)c(O)c4)oc4cc(O)cc(O)c4c3=O)[C@H](O)[C@@H](O)[C@@H]2O)[C@H](O)[C@H](O)[C@H]1O` [Rutin, reference compound], the “Cell viability (%)” value is listed as greater than 85% in series [1] (12.2 μg (20 μM)), greater than 85% in series [1] (24.4 μg (40 μM)) and “≦75%” in series [1] (48.8 μg (80 μM)). The inhibition at 20 µM in series [2] (Mus musculus, J774, 16 h, 12.2 μg (20 μM), J774, LPS 1 μg/ml 16 h) was 11%. Besides, the inhibition at 40 µM in series [2] (Mus musculus, J774, 16 h, 24.4 μg (40 μM), J774, LPS 1 μg/ml 16 h) was 20.6%. In addition, the inhibition at 80 µM in series [2] (Mus musculus, J774, 16 h, 48.8 μg (80 μM), J774, LPS 1 μg/ml 16 h) came out at 27%.
